Laboratory results: patent US4514410A, “Substituted 8-phenylisoxazolo[4,3-e][1,4]diazepin-5-ones” (Hoechst-Roussel Pharmaceuticals Inc., priority 1984, dated 1985)

Experiments:
[1] = Average conflict response ratio (anxiolytic); type: in vivo; details: drug:control
Protocol: The compounds of the invention are also useful as anxiolytic agents due to their ability to reduce anxiety in mammals. Anxiolytic activity is measured as the average conflict response ratio (drug:control) at 40 mg/kg of body weight.

[2] = system: extensor tonus in electroshocked mice; assay: Inhibition of extensor tonus induced by electroshock in mice (anticonvulsant); type: in vivo; details: Mus musculus, effective dose for 50% inhibition of extensor tonus
Description: The anti-convulsant activity of some of the compounds of this invention expressed in terms of the effective dose for 50% inhibition of extensor tonus in mg/kg of body weight in electroshocked mice is given in Table I.

Row | SMILES | Average Conflict Response Ratio ([1]; at 40 mg/kg of body weight) | ED50 [2] [mg/kg] | Average Conflict Response Ratio ([1]; @ 20 mg/kg (standard))
1 | CC1=C2C(=C(c3ccccc3Cl)N=CC(=O)N2C)NO1 [3,4-Dimethyl-8-(2-chlorophenyl)isoxazolo[4,3-e][1,4]diazepin-5-one] | 18.2 | 35.6 | 
2 | CC1=C2C(=C(c3ccccc3)N=CC(=O)N2C)NO1 [3,4-Dimethyl-8-phenylisoxazolo[4,3-e][1,4]diazepin-5-one] | 31.7 | 25.1 | 
3 | CNC1=Nc2ccc(Cl)cc2C(c2ccccc2)=[N+]([O-])C1 [chlordiazepoxide, reference compound] |  |  | 32.6
4 | CC1=C2C(=C(c3ccccc3F)N=CC(=O)N2C)NO1 [3,4-Dimethyl-8-(2-fluorophenyl)isoxazolo[4,3-e][1,4]diazepin-5-one] | 11.2 | 79.8 | 
5 | CC(=O)Nc1nnc(S(N)(=O)=O)s1 [acetazolamide, reference compound] |  | 29.1 | 
